Data on four compounds can be found in patent US20170281732A1, “METHODS OF TREATING MILD BRAIN INJURY” (OXEIA BIOPHARMACEUTICALS, INC., priority 2014, published 2017).

Experiment [1] has as its system oxidative burst in inflammatory cells following mBI. Nature of the experiment: Oxidative burst in brain inflammatory cells following mBI (controlled cortical impact, DHR 123 flow cytometry). The experiment is classed as in vivo, C57/B6 mice. The note with it: subcutaneous ghrelin after mBI, compared to mBI without treatment; mice. How it is done: Ghrelin variant administration reduces oxidative burst in inflammatory cells following mBI. Since no well-accepted animal model exists for concussions, a very small cerebral lesion that closely mimics mBI is used as a model of mBI. C57/B6 mice anesthetized with 5% isoflurane in oxygen (1.7 L/min) are given 0.3 mg/kg buprenorphine subcutaneously for analgesia prior to infliction of the mild brain injury. Anesthesia is assessed by paw pinch reflex. After creating a burr hole through the dura with a dental drill, a lesion using a controlled cortical impactor (CCI) is used to create injury 1 mm lateral and posterior to the bregma (5.0 mm/sec at a depth of 1.0 mm).
Animals are separated into three treatment groups: 1) Sham, 2) mBI, and 3) mBI plus ghrelin variant. A variety of doses can be tested depending upon the particular ghrelin variant. For example, 1 to 50 μg at one or more time points. As one example, treatment with subcutaneous ghrelin variant: 1 dose of 10 μg following mBI and additional dose 10 μg 1 hour after. Brain tissue is harvested at 2-8 hours, preferably about 6 hours post-injury. […] The fluorescence is then measured (AFU), higher intensity means greater oxidative burst and, therefore greater concentration or amount of ROS. […] Oxidative burst, which is a marker for ROS, can be measured by respiratory burst using flow cytometry (e.g., FL1 channel with 488-nm laser).

The conditions of experiment [2]: Matsumoto et al., 2001, Biochem. Biophys. Res. Commun. 284:655-659; cited from earlier work.
The target in another experiment is GHS-R (Homo sapiens, UniProt Q92847). Nature of the experiment: GHS-R antagonist activity in a cell based assay (Table 4, Exemplary GHS-R Modulating Compounds).
Chain of GHS-R (Q92847 whole entry): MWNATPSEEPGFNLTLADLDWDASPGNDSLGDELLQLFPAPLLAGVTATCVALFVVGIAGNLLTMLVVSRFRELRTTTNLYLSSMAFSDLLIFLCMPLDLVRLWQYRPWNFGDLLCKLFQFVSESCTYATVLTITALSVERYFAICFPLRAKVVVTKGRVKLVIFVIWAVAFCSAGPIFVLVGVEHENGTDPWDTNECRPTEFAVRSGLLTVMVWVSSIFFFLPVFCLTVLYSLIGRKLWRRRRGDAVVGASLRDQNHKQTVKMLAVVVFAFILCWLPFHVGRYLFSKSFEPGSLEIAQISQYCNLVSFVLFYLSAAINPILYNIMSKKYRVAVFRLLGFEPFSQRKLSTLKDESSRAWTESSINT
The next experiment relates to ischemic brain injury. Particulars: in vivo; cited from earlier work.
Experiment [3] relates to rat model of Parkinson's disease. Particulars: cited from earlier work.

As to Ghrelin (GSSFLSPEHQRVQQRKESKKPPAKLQPR), the “Oxidative burst as quantified by Arbitrary Fluorescence Units (AFU)” value in experiment [1] was “reduced the oxidative burst compared to mBI”.
For the compound `CCCCCCCCOC[C@H](NC(=O)CCCCN)C(=O)N[C@@H](Cc1ccccc1)C(=O)N[C@@H](CC(C)C)C(=O)NCCN` [5-aminopentanoyl-Ser(Octyl)-Phe-Leu-aminoethylamide], in experiment [2], the ghrelin activity entry is recorded as “potent ghrelin activity”.
As for `CCN(CC)CCCS(=O)(=O)N[C@H](CCc1ccccc1)c1nc(-c2ccc3nccn3c2)n[nH]1` [Compound 134, 3-Diethylamino-propane-1-sulfonic acid {(R)-1-[5-(1H-imidazo[1,2,-a]pyridin-6-yl)-2H-[1,2,4]triazol-3-yl]-3-phenyl-propyl}-amide], the Ki at GHS-R was 0.1 to 0.5 µM.
In the case of `C=CC[C@]12CCCN1C(=O)CNC2=O` [NNZ-2591, cyclo-L-glycyl-L-2-allylproline], the “neuroprotection after ischemic brain injury” value with ischemic brain injury is “neuroprotective”. Also, in experiment [3], the motor function entry is recorded as “improves motor function”.
